This note sets out measurements from patent US9180111B2, “Reduction in complement activation and inflammation during tissue injury by carotenoids, carotenoid analogs, or derivatives thereof” (Cardax Pharma, Inc., priority 2005, dated 2015).

In the data set the test system is New Zealand white rabbits. Briefly: Myocardial infarct size after 30 min LAD coronary artery occlusion and 3 h reperfusion (tetrazolium method). The format is in vivo, rabbit. As for the experimental part:
Male New Zealand white rabbits (2.3-2.6 kg) were assigned randomly to two separate groups. Each animal received DDA aqueous formulation (50 mg/kg), or an equal volume of sterile NaCl solution, once per day intravenously. The dose of DDA was selected based on the findings of previous investigations in which it was determined that a dosing regimen over four days produced statistically significant myocardial salvage in Sprague-Dawley rats (41% mean salvage at 50 mg/kg) and mongrel canines (68% mean salvage at 50 mg/kg) after ischemia and reperfusion (Gross and Lockwood, 2004; Gross and Lockwood, In Press). The animals in each group received the respective treatments on each of four consecutive days, with the experimental protocol being initiated on fifth day.
One day after the last treatment (DDA or placebo), rabbits were anesthetized with a combination of xylazine (3.0 mg/kg) and ketamine (35 mg/kg) administered intramuscularly, followed by an intravenous injection of sodium pentobarbital (15 mg/kg). An endotracheal tube was inserted and the animals were placed on a positive pressure ventilator (Harvard Apparatus, Cambridge, Mass.). The right jugular vein was cannulated for blood sampling and the right carotid artery was instrumented with a Millar catheter micro-tip pressure transducer (Millar Instruments Inc., Houston, Tex.). The Millar catheter transducer was positioned immediately above the aortic valves to monitor aortic blood pressure. The lead II electrocardiogram was monitored throughout the protocol. A left thoracotomy and pericardiotomy were performed, followed by identification of the left anterior descending coronary artery. A silk suture (3-0; Genzyme Corporation, Fall River, Mass.) was passed under the artery and around a short length of polyethylene tubing. […] Coronary artery occlusion was maintained for 30 min after which time reperfusion was initiated by withdrawing the polyethylene tubing. […]

SMILES strings stand for the structures.

`CC1=C(/C=C/C(C)=C/C=C/C(C)=C/C=C/C=C(C)/C=C/C=C(C)/C=C/C2=C(C)C(=O)C(OC(=O)CCC(=O)O)CC2(C)C)C(C)(C)CC(OC(=O)CCC(=O)O)C1=O` (stereo not drawn) [DDA, disodium disuccinate astaxanthin]: the mean myocardial salvage (50 mg/kg daily i.v. for four days, versus placebo) stood at 51%. Also, the “mean infarct size expressed as a percentage of the area at risk” value (50 mg/kg/day i.v. for 4 days, 30 min occlusion, 3 h reperfusion, mean ± S.E.M.) amounted to 25.8±4.2%. The “heart rate, blood pressure, blood gases versus saline group” value (baseline and throughout protocol on day 5) is listed as “No differences”.
